Laboratory results published in US9464064B2, “HCV helicase inhibitors and methods of use thereof” (University of Kansas, priority 2011, dated 2016).

Biological target: T1, HCV NS3 helicase NS3h_1b(con1) (Hepatitis C virus genotype 1b, UniProt Q9WMX2)
T1 construct: truncated C-terminally His-tagged NS3 proteins lacking the N-terminal protease, called NS3h; His-tag (C); made in house
Assay: MBHA screen of NCI mechanistic set library at 20 μM (percent inhibition, compound interference)
Type: biochemical
Conditions: compounds at 20 μM; for Inh. (%) (Inhibition): calculated from Equation 1
Procedure: All molecular beacon-based helicase assays (MBHAs) were performed according to known methods (Belon & Frick (2008) supra; Belon & Frick (2009) supra). […] In each flat, black 384-well plate, 56 compounds were tested, in triplicate, along with three negative controls (DMSO only), three positive controls (500 nM dT20), and two wells with no enzyme. Fluorescence was read before ATP (F0) addition and 30 minutes after ATP was added to 1 mM (F30) using a Tecan Infinite M200 fluorescence microplate reader with excitation and emission wavelengths set to 643 and 670 nm, respectively. Percent inhibition was calculated with equation 1, and compound interference in the MBHA was calculated with equation 2.
In Equations 1 and 2, Fc0 is the fluorescence of the reactions containing the test compound before adding ATP, Fc30 is the fluorescence of the test compound reaction 30 minutes after adding ATP. F(−)0 is the average of three DMSO-only negative control reactions before adding ATP and F(−)30 is the average of three DMSO-only reactions 30 minutes after adding ATP.
To identify HCV helicase inhibitors, the MBHA was first used to screen the National Cancer Institute Developmental Therapeutics Program's mechanistic set library. In total, 827 compounds (at 20 μM) were screened using a MBHA with a DNA substrate (Table 1). Compounds were ranked by their ability to inhibit HCV helicase-catalyzed DNA unwinding as calculated from Equation 1.
Compound interference in the MBHA was evaluated by comparing the fluorescence of reactions containing each compound to the fluorescence of DMSO-only negative controls before ATP was added.

[1] = assay interference calculated with Equation 2 (fluorescence vs DMSO-only controls before ATP)
[2] = MBHA with DNA substrate, assay interference calculated with Equation 2

T1 sequence (Q9WMX2 1192-1657): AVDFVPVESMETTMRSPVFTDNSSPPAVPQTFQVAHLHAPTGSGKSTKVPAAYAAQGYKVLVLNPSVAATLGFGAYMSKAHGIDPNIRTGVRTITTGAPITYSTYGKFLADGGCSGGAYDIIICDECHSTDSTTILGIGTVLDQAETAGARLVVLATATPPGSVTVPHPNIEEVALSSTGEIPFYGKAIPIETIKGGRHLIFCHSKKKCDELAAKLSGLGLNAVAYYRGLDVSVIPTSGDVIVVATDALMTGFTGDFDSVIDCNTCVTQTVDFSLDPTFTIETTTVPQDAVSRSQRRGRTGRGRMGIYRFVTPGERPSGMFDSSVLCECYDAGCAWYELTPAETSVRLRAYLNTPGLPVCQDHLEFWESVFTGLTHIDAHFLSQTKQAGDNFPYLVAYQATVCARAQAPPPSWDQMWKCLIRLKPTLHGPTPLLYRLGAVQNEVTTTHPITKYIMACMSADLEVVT

| Structure (SMILES) | Inh. (%) (Inhibition) (MBHA with a DNA substrate) | Int.* (Ratio) (Interference) [1] | Int.* (Ratio) (Interference) [2] | Inh. (%) (Inhibition) (MBHA with DNA substrate) | Inh. (%) (Inhibition) (MBHA with DNA substrate, 20 µM) |
| --- | --- | --- | --- | --- | --- |
| Cl.Nc1ccn([C@@H]2O[C@H](CO)[C@@H](O)[C@@H]2O)c(=O)n1 [Compound 63878] | 8.3 | 0.89 |  |  |  |
| Nc1ncnc2c1ncn2[C@@H]1O[C@H](CO)C[C@H]1O [Compound 63984] |  |  | 1.11 | −0.8 |  |
| CC(C)CCCCCCCCCCCCC(=O)NCC(=O)N[C@@H]1[C@@H](O)[C@H](O)[C@@H](Nc2ncnc3nc[nH]c23)O[C@H]1[C@@H](O)CO [Compound 65104] | −22.3 | 1.01 |  |  |  |
| NC(=O)c1cn(C2OC(CO)C(O)C2O)c2ncnc(N)c12 (stereo not drawn) [Compound 65346] |  |  | 0.92 | 0.0 |  |
| CC1OC1C(=O)C1(O)C(C)C(O)C23OC2(C(O)c2c(O)cccc2C3=O)C1O (stereo not drawn) [Compound 65380] | 11.3 | 1.03 |  |  |  |
| NC(=O)C#CC(N)=O [Compound 65381] |  |  | 0.96 | 14.1 |  |
| OC[C@H]1O[C@@H](n2cnc3cncnc32)[C@H](O)[C@@H]1O [Compound 65423] |  |  | 1.12 | 2.0 |  |
| O=C(Nc1ccc2c(c1)oc(=O)c1ccccc12)C(Cl)Cl [Compound 65937] |  |  | 1.01 | −9.8 |  |
| CCCCC(/C=N/N=C(N)N)CC.Cc1cc(O)c(C(C)C)cc1S(=O)(=O)O [Compound 66300] |  |  | 1.21 | 2.2 |  |
| CCCc1c(Cl)nc(Cl)nc1Cl [Compound 66914] |  |  | 0.91 | −0.8 |  |
| CC[C@]1(O)C[C@H]2CN(CCc3c([nH]c4ccccc34)[C@@](C(=O)OC)(c3cc4c(cc3OC)N(C=O)[C@H]3[C@@](O)(C(=O)OC)[C@H](OC(C)=O)[C@]5(CC)C=CCN6CC[C@]43[C@@H]65)C2)C1 [Compound 67574] |  |  | 0.96 | −16.1 |  |
| COc1cc(-c2cc(=O)c3c(OC)c(OC)c(OC)c(OC)c3o2)cc(OC)c1OC [Compound 67580] | −27.4 | 1.12 |  |  |  |
| O=C(O)c1ccccc1-c1ccccc1C(=O)Nc1ccc2c(c1)Cc1ccccc1-2 [Compound 67690] |  |  | 1.16 | −9.5 |  |
| COc1cc(C[C@H]2c3cc(OC)c(OC)cc3CCN2C)c(Oc2cc3c(cc2OC)-c2c(OC)c(OC)cc4c2[C@H](C3)N(C)CC4)cc1OC [Compound 68075] |  |  | 1.02 | 23.1 |  |
| [O-][n+]1ccccc1[S-].[O-][n+]1ccccc1[S-].[Zn+2] [Compound 68093] |  |  | 0.90 | 19.5 |  |
| COc1ccc2[nH]c3c(C)c4ccncc4c(C)c3c2c1 [Compound 69187] |  |  | 0.22 | 99.2 |  |
| Cl.Cl.Cl.Cl.NCCCNCCCCNCCCN [Compound 69852] |  |  | 1.06 | −8.6 |  |
| Nc1ncnc2c1ncn2C1OC(CO)C(O)C1O (stereo not drawn) [Compound 70422] |  |  | 0.85 |  | 33.9 |
| COC(=O)C1c2cc3c(c(O)c2C(OC2OC(C)C(OC)C(C)(OC)C2OC)CC1(C)O)C(=O)c1c(O)cc2c(c1C3=O)OC1OC2(C)C(O)C(N(C)C)C1O (stereo not drawn) [Compound 70845] |  |  | 0.59 | 84.4 |  |
| Cc1cc2c(c3oc(C4(C)OC4C4OC4C)cc(=O)c13)C(=O)c1c(O)c(C3CC(C)(N(C)C)C(O)C(C)O3)cc(C3CC(N(C)C)C(O)C(C)O3)c1C2=O (stereo not drawn) [Compound 70929] |  |  | 0.20 | 32.1 |  |

| Structure (SMILES) | Inh. (%) (Inhibition) (MBHA with a DNA substrate) | Int.* (Ratio) (Interference) [1] | Int.* (Ratio) (Interference) [2] | Inh. (%) (Inhibition) (MBHA with DNA substrate) | Inh. (%) (Inhibition) (MBHA with DNA substrate, 20 µM) |
| --- | --- | --- | --- | --- | --- |
| COc1ccc(OC)c(-c2cc(=O)c3c(OC)c(OC)c(OC)c(OC)c3o2)c1 [Compound 71300] |  |  | 1.12 | 2.2 |  |
| Nc1nc(N)c(-c2cccc(C(F)(F)F)c2)c(Cc2cccc(C(F)(F)F)c2)n1 [Compound 71669] |  |  | 1.06 | 12.4 |  |
| Nc1nc(=S)c2ncn([C@@H]3C[C@H](O)[C@@H](CO)O3)c2[nH]1 [Compound 71851] | 10.2 | 0.94 |  |  |  |
| Nc1ncnc2c1nnn2[C@@H]1O[C@H](CO)[C@@H](O)[C@H]1O [Compound 72961] | 8.5 | 0.98 |  |  |  |
| CC(=O)C1=C(O)C2(O)C(=O)c3c(c(C)c4ccc(C)c(O)c4c3O)CC2C(N)C1=O.CCCCCCCCCCCCOS(=O)(=O)O (stereo not drawn) [Compound 73495] | −5.1 | 1.01 |  |  |  |
| Cl.NC(N)=N/N=C(\c1ccc(Cl)cc1)C1CC1 [Compound 74420] | −6.1 | 1.10 |  |  |  |
| O=C(Nc1ccc(Sc2ccc(N=Nc3c(O)c(S(=O)(=O)O)cc4cc(S(=O)(=O)O)ccc34)cc2)cc1)c1ccc(N=Nc2c(O)ccc3c(S(=O)(=O)O)cc(S(=O)(=O)O)cc23)cc1 [Compound 76027] | −5.5 | 0.85 |  |  |  |
| CC1=Nc2ccccc2/C1=C\c1c(C)[nH]c2ccccc12 [Compound 76747] |  |  | 1.14 | −1.2 |  |
| C[C@]12C=CC(=O)C=C1[C@@H](F)C[C@H]1[C@@H]3CC[C@](O)(C(=O)CO)[C@@]3(C)C[C@H](O)[C@@]12F [Compound 77021] | 9.8 | 1.00 |  |  |  |
| CCCCOc1ccc(NC(N)=Nc2ccc(Cl)cc2)cc1 [Compound 78365] |  |  | 0.98 | 4.7 |  |
| Cc1ccc([N+](=O)[O-])cc1NC(=O)c1cccc([N+](=O)[O-])c1O [Compound 79451] |  |  | 0.98 | −11.9 |  |
| Cc1ccc(NC(=O)c2cccc([N+](=O)[O-])c2O)c(C)c1 [Compound 79456] |  |  | 0.97 | −14.5 |  |
| Cc1cc(N(CCCl)CCCl)ccc1/C=N/NC(=O)Cc1cc(=O)oc2cc(O)ccc12 [Compound 79688] | 7.5 | 0.97 |  |  |  |
| CN(C)c1ccc(/C=C2/C=Cc3ccccc32)cc1 [Compound 80087] | −7.0 | 1.17 |  |  |  |
| O=C(CC(=O)C(F)(F)F)c1csc2ccccc12 [Compound 80396] |  |  | 1.12 | −10.6 |  |
| COc1cc(OC)c(OC)cc1/C=C/c1ccnc2ccccc12 [Compound 80756] |  |  | 0.97 | 1.2 |  |
| Cc1ccc(NC(=O)c2cccc([N+](=O)[O-])c2O)c([N+](=O)[O-])c1 [Compound 82025] | 10.4 | 0.94 |  |  |  |
| CCOC(C)C(C=NNC(N)=S)=NNC(N)=S (stereo not drawn) [Compound 82116] | −6.7 | 1.10 |  |  |  |
| N[C@@H](CSC(c1ccccc1)(c1ccccc1)c1ccccc1)C(=O)O [Compound 83265] | −22.5 | 0.98 |  |  |  |
